Results on one substance are retold here after patent publication US8178091B2, “Compositions and methods for the treatment of respiratory disorders” (University of Washington, priority 2007, dated 2012).

The subject of data set [1] is lung cells (TUNEL positive). As to the kind of experiment: TUNEL assay on lung sections after bleomycin. The format is in vivo, mice. As to the method:
For TUNEL assay, tissue sections were deparaffinized using standard protocols and permeabilised with proteinase K (10 μg/ml in 10 mM Tris-HCl) for 30 mins at 37° C. Non-specific binding sites were blocked with 1 mg/ml BSA in 50 mM Tris-HCl for 10 mins at 37° C. TUNEL positive cells were detected with Fluorescein In Situ Cell Death Detection Kit (Roche). Nuclei were counterstained with DAPI. To quantitate apoptosis, at least 2 mice per timepoint were examined and a blinded observer counted number of TUNEL positive cells and DAPI positive cells in 4 independent fields/mouse. At least 500 cells were analyzed per condition.

The test system of another data set is bleomycin-treated mice. Nature of the data set: bleomycin-induced lung injury and fibrosis model. Type of data set: in vivo. The protocol: ICR male mice are anesthetized under pentobarbital (60 mg/kg, i.v.) anesthesia, the cervical region is shaved and the skin is incised for about 4 mm from under the larynx region along the median line. Next, the muscle layer covering upper trachea is peeled off to expose the trachea. Using a micro-syringe, physiological saline or bleomycin hydrochloride (0.03 mg/animal, manufactured by Nippon Kayaku) is administered tracheally (50 μl/animal) from the tracheal smooth muscle region between cricoid cartilage. After the administration, the incised region is closed and antibiotics are administered into the thigh intramuscularly in order to prevent infection. IGF-1R inhibitor, e.g., antibody to IGF-1 receptor (A12). […] Controls included bleomycin-treated animals receiving saline injection in place of A12 antibody. At various time points after the induction, each animal is sacrificed by exsanguination under pentobarbital anesthesia, and lung tissue is excised to monitor for differences in lung injury in the test versus control groups. In addition, bronchoalveolar lavage is performed, with analysis of the resulting fluid for differences in total protein, cytokines, inflammatory cells and fibroblasts or in the responsiveness of such cells to, e.g., apoptotic or other stimuli. Lung hydroxyproline content is measured as a measure of fibrosis. Changes in lung tissue histology are also monitored. Further details on the processing of lung tissue for analysis include the following. At time of sacrifice, the right main stem bronchus was tied off and the left lung was isolated and lavaged with 1 ml of PBS containing 0.6 mM EDTA warmed to 37° C. Bronchoalveolar lavage fluid (BALF) total cell count was determined by trypan blue exclusion and cell differential was determined on Diff quick (Dade Behring Ag, Düdingen, Switzerland) stained cytospins. Following brief centrifugation, cell-free supernatants were used for measurement of total protein by Bio-Rad protein assay (Bio-Rad laboratories, Hercules, Calif.). […] Hydroxyproline concentration was extrapolated from a standard curve. The right lung was inflated and fixed with 4% formaldehyde at 25 cmH2O pressure for histologic evaluation.
For these experiments, the bleomycin-induced lung injury was initiated in the manner described herein above, and the A12 anti-IGF-1R antibody was used for receptor blockade. Mice treated with bleomycin were treated with a monoclonal antibody against the IGF-1 receptor (A12) or vehicle.
For statistical analyses of the data, means of more than two groups of data were compared using one-way analysis of variance (ANOVA) with Tukey's honestly significant difference (HSD) post hoc test. In some cases, Kaplan-Meier Survival Analysis was performed using JMP IN v5.1; statistical significance was determined using log rank test.

In the next data set the target is insulin receptor (IR) (Homo sapiens, UniProt P06213). To be noted: cited from earlier work.
In data set [2] the test system is primary mouse lung fibroblasts. Nature of the data set: migration assay (FluoroBlok transwell). Type of data set: cell-based, C57BL6 mice. To be noted: IGF-1 100 ng/ml; A12 40 μg/ml preincubation. The protocol: Mouse lung fibroblasts were plated FluoroBlok transwell filters overnight, then IGF-1 (100 ng/ml), serum free media (negative control), 10% serum (positive control) was added to lower chamber. Some cells were preincubated with the blocking antibody to IGF-1R (A12, 40 μg/ml) before the addition of IGF-1. Cells were allowed to migrate through membrane for 4 hours @ 37° C. Migrated cells were counted with Fluorescent microscope. Each experiments was done in triplicate and repeated at least three times. Average cell count ±SD are presented.
For migration assays, primary mouse lung fibroblasts (50,000 cells/well) were plated in serum-free medium overnight on Fluoroblok transwell filters (8 μm pores, HTS FluoroBlok™ 24-Multiwell Insert System, BD Bioscience, Bedford, Mass.) pre-coated with fibronectin (50 μg/ml). Fluoroblok microporous membranes are specifically designed to detect by fluorescence only cells below the surface membrane. IGF-1 (100 ng/ml), 10% FBS (positive control) or serum-free media (negative control) was added to lower chamber. In some experiments, cells were preincubated with the blocking antibody to IGF-1R (A12, 40 μg/ml), for 1 hour. After 4 hours of migration, filters were fixed with formaldehyde and stained with DAPI (4′6-Diamidine-2′-phenylindole dihydrochloride, Roche, Indianapolis, Ind.). Migrated cells were counted in three predesignated fields for each filter. All experiments were done in triplicate and repeated at least three times.

For the next data set, the system named is IGF-1R. To be noted: murine and human tissues; cited from earlier work.
The format of data set [3] is in vivo, mice. To be noted: absence of bleomycin, not shown. From the text: In the saline control group, most deaths occurred between 7 and 10 days, as expected in this model. […] In the absence of bleomycin, administration of A12 alone had no affect on survival, lung histology, BAL protein concentration or cell count (not shown).

“Also recorded” adds a separate entry of the source.

Take “A12: Function blocking antibody to the human type 1 IGF receptor, gift from ImClone Systems”: the “TUNEL-positive (apoptotic) cells in lung” value in data set [1] (d14, vs vehicle) is “increase in TUNEL-positive cells”; in data set [1] (day 28, vs vehicle), “fewer apoptotic cells”. Further, the “proportion of mice surviving” value in the data set on bleomycin-treated mice (7-14 days post-bleomycin, A12 40 mg/kg i.p. vs saline) was “significantly greater”. In addition, the “BALF total protein concentration” value in the data set with bleomycin-treated mice (28 days, vs saline, p=0.16) was “trend towards decreased BALF protein concentration”; in the data set with bleomycin-treated mice (days 7 and 14, vs saline) it was “no significant difference; also recorded: no difference in BALF protein concentration”. Further, the weight loss in the data set with bleomycin-treated mice (by d14, bleomycin-treated mice) came out at 20%. In addition, the “lung hydroxyproline content (fibrosis)” value is given as “no significant differences” in the data set on bleomycin-treated mice (day 7 and day 14, vs saline); “significantly lower lung hydroxyproline levels; also recorded: significantly less hydroxyproline” in the data set on bleomycin-treated mice (day 28, vs saline control (p=0.03) or d14 (p=0.001)). The lung histology entry with bleomycin-treated mice (day 14, vs saline) was “Only subtle histological differences; also recorded: qualitatively less fibrosis”; in the data set with bleomycin-treated mice (day 28, vs saline), “Reduced evidence of fibrosis; also recorded: better preservation of lung architecture and lung size, and fewer areas of fibrosis”. The “survival (Kaplan-Meier)” value in the data set on bleomycin-treated mice (n=24 per group, p=0.01 vs saline control) is given as “statistically significant survival benefit”. Further, the “BALF differential cell count” value in the data set on bleomycin-treated mice (vs saline) is “no significant difference; also recorded: no difference in the cell differential”. For the same substance, the “BALF total cell count” value in the data set on bleomycin-treated mice (vs saline) is recorded as “no significant difference; also recorded: not statistically different”. Also, the “respiratory or systemic distress by body condition scoring” value in the data set with bleomycin-treated mice (vs saline control) is “less evidence of respiratory or systemic distress”. For the same substance, the “cross-reaction with insulin receptor” value with insulin receptor (IR) is “does not cross-react”. Moreover, in data set [2], the “effect on IGF-1-induced migration” value was “inhibited; also recorded: abrogated the increased migration”. In the data set with IGF-1R, the IGF-1R signaling result was “inhibits IGF-1R signaling”. Further, the “survival, lung histology, BAL protein concentration or cell count” value in data set [3] is listed as “had no affect”.
